Results published in patent publication US20150259331A1, “PROTOZOAN PARASITE GROWTH INHIBITORS” (Northeastern University, priority 2014, published 2015).
Like-named read-outs stand apart in the source and are kept apart here.

How the values were obtained:
T. cruzi = T. cruzi growth inhibition; type: cell-based, Trypanosoma cruzi; details: Trypanosoma cruzi
[1] = test system: T. brucei brucei Lister 427; test: Trypanosome replication assay; type: cell-based, Trypanosoma brucei brucei; details: Trypanosoma brucei; for inhibition at 5 µM: read-out: Tbb % inh at 5 μM; for EC50: 48 h, values ±7%
L. major promastigote = L. major promastigote assay; type: cell-based; details: Leishmania major
L. major amastigote = L. major amastigote assay; type: cell-based; details: Leishmania major
P. fal = P. fal assay of Table 13 (strain not given); type: cell-based, P. falciparum; details: Plasmodium falciparum
[2] = HepG2 cell toxicity (MTT) assay; type: cell-based; details: human, HepG2 cells; Table 13; read-out: HepG2 TC50
HepG2 cells = test: HepG2 cell toxicity (MTT) assay; type: cell-based; details: Table 13; read-out: HepG2 TC50
[3] = test system: T. brucei brucei Lister 427; details: published activities of HAT treatments and SCYX-7158; read-out: Tbb EC50; cited from earlier work
in vitro = details: male, BALB/c, mouse
Procedure: Mice plasma (BALB/c mice, male—pool of 3 animals) was collected in-house using K2EDTA as anticoagulant. […] Glipizide (Cat #50402G) was purchased from Apin chemicals, Abingdon, Oxon. Albendazole (Cat #A4673) was purchased from Sigma. Phosphate buffered saline pH 7.4 (0.1 M sodium phosphate and 0.15 M sodium chloride) and RED device inserts were procured from Thermo Scientific, Meridian Rd., Rockford, Ill.
Further 1 mM stock was diluted 200-fold in mice plasma to prepare a concentration of 5 μM. The final DMSO concentration in plasma was 0.5%.
Rapid equilibrium dialysis was performed with a rapid equilibrium dialysis (RED) device containing dialysis membrane with a molecular weight cut-off of 8,000 Daltons. Each dialysis insert contains two chambers. The red chamber is for plasma while the white chamber is for buffer. A 200 μL aliquot of warfarin or test compound at 5 μM (triplicates) was separately added to the plasma chamber and 350 μL of phosphate buffer saline (pH 7.4) was added to the buffer chamber of the inserts. After sealing the RED device with an adhesive film, dialysis was performed at 37° C. with shaking at 100 rpm for 4 hours as per manufacturer's recommendation.
Recovery and stability: A 50 μL aliquot of warfarin or test compound was added to four 0.5 mL microfuse tubes. Two aliquots were frozen immediately (0 minute sample). The other two aliquots were incubated at 37° C. for 4 hours along with the RED device.
Following dialysis, an aliquot of 50 μL was removed from each well (both plasma and buffer side) and diluted with equal volume of opposite matrix (dialyzed with the other matrix) to nullify the matrix effect. Similarly, 50 μL of buffer was added to recovery and stability samples. An aliquot of 100 μL was submitted for LC-MS/MS analysis.
A 25 μL aliquot of warfarin and test compounds were crashed with 100 μL of acetonitrile containing internal standard (glipizide for warfarin and test compound) and vortexed for 5 minutes. The samples were centrifuged at 15,000 rpm at 4° C. for 10 min and 100 μL of supernatant was submitted for LCMS/MS analysis. Samples were monitored for parent compound in MRM mode using LC-MS/MS.

[4] = concentration giving 50% inhibition of growth of T brucei brucei Lister 427 cells, read-out: Tbb EC50
[5] = read-out: Tbb EC50, concentration giving 50% inhibition of growth of T brucei brucei Lister 427 cells

SMILES	EC50 (T. cruzi) [µM]	EC50 (L. major promastigote) [µM]	EC50 (L. major amastigote) [µM]	EC50 (P. fal) [nM]	EC50 [1, 4] [nM]	CC50 (HepG2 cells) [µM]	other results
Fc1cccc(COc2ccc(Nc3nccc4cc(-c5cccc(N6CCOCC6)c5)ccc34)cc2Cl)c1 [NEU-946, N-(3-Chloro-4-((3-fluorobenzyl)oxy)phenyl)-6-(3-morpholinophenyl)isoquinolin-1-amine]	> 50	> 15	2.2	2800	–	–	inhibition at 5 µM [1]: 12%; CC50 at 48 h [2]: > 15 µM
Fc1cccc(COc2ccc(Nc3nccc4ccc(-c5cccc(N6CCOCC6)c5)cc34)cc2Cl)c1 [NEU-947, N-(3-Chloro-4-((3-fluorobenzyl)oxy)phenyl)-7-(3-morpholinophenyl)isoquinolin-1-amine]	> 50	> 15	6	2500	–	–	inhibition at 5 µM [1]: 0.1%; CC50 at 48 h [2]: > 15 µM
O=S(=O)(c1ccc(-c2ccc3ccnc(Nc4ccc(OCc5ccccc5)c(Cl)c4)c3c2)cc1)N1CCOCC1 [NEU-949, N-(4-(Benzyloxy)-3-chlorophenyl)-7-(4-(morpholinosulfonyl)phenyl)isoquinolin-1-amine]	> 50	> 15	> 15	870	> 2500	–	CC50 at 48 h [2]: > 15 µM
Fc1cccc(COc2ccc(Nc3ccnc4ccc(-c5cccc(N6CCOCC6)c5)cc34)cc2Cl)c1 [NEU-959, N-(3-Chloro-4-((3-fluorobenzyl)oxy)phenyl)-6-(3-morpholinophenyl)quinolin-4-amine]	6.6	0.9	4	35	1000	10	–
CN1CCN(S(=O)(=O)c2ccc(-c3ccc4nccc(Nc5ccc(OCc6cccc(F)c6)c(Cl)c5)c4c3)cc2)CC1 [NEU-960, N-(3-Chloro-4-((3-fluorobenzyl)oxy)phenyl)-6-(4-((4-methylpiperazin-1-yl)sulfonyl)phenyl)quinolin-4-amine]	5.3	0.6	2	16000	460	6.4	–
O=S(=O)(c1ccc(-c2ccc3nncc(Nc4ccc(OCc5ccccc5)c(Cl)c4)c3c2)cc1)N1CCOCC1 [NEU-1002, N-(4-(Benzyloxy)-3-chlorophenyl)-6-(4-(morpholinosulfonyl)phenyl)cinnolin-4-amine]	> 50	> 15	> 15	820	1200	> 15	–
Fc1cccc(COc2ccc(Nc3cnnc4ccc(-c5cccc(N6CCOCC6)c5)cc34)cc2Cl)c1 [NEU-1012, N-(3-Chloro-4-((3-fluorobenzyl)oxy)phenyl)-6-(3-morpholinophenyl)cinnolin-4-amine]	> 50	> 15	> 15	540	1100	> 15	–
CN1CCCN(S(=O)(=O)c2ccc(-c3ccc4nncc(Nc5ccc(OCc6cccc(F)c6)c(Cl)c5)c4c3)cc2)CC1 [NEU-1013, N-(3-Chloro-4-((3-fluorobenzyl)oxy)phenyl)-6-(4-((4-methyl-1,4-diazepan-1-yl)sulfonyl)phenyl)cinnolin-4-amine]	2.2	4.1	1.06	27	580	7.3	–
Fc1cccc(COc2ccc(Nc3cnnc4cc(-c5cccc(N6CCOCC6)c5)ccc34)cc2Cl)c1 [NEU-1014, N-(3-Chloro-4-((3-fluorobenzyl)oxy)phenyl)-7-(3-morpholinophenyl)cinnolin-4-amine]	45	9.8	> 15	200	890	11	–
O=S(=O)(c1ccc(-c2ccc3c(Nc4ccc(OCc5ccccc5)c(Cl)c4)cnnc3c2)cc1)N1CCOCC1 [NEU-1015, N-(4-(Benzyloxy)-3-chlorophenyl)-7-(4-(morpholinosulfonyl)phenyl)cinnolin-4-amine]	15	> 15	> 15	150	1200	> 11	–
O=S(=O)(c1ccc(-c2ccc3cnnc(Nc4ccc(OCc5ccccc5)c(Cl)c4)c3c2)cc1)N1CCOCC1 [NEU-1036, N-(4-(Benzyloxy)-3-chlorophenyl)-7-(4-(morpholinosulfonyl)phenyl)phthalazin-1-amine]	> 50	> 3.4	> 4	540	860	> 5.2	–
O=S(=O)(c1ccc(-c2ccc3c(Nc4ccc(OCc5ccccc5)c(Cl)c4)nncc3c2)cc1)N1CCOCC1 [NEU-1039, N-(4-(Benzyloxy)-3-chlorophenyl)-6-(4-(morpholinosulfonyl)phenyl)phthalazin-1-amine]	> 50	> 15	> 15	110	990	> 15	–
CN1CCN(S(=O)(=O)c2ccc(-c3ccc4c(Nc5ccc(OCc6cccc(F)c6)c(Cl)c5)nncc4c3)cc2)CC1 [NEU-1041, N-(3-Chloro-4-((3-fluorobenzyl)oxy)phenyl)-6-(4-((4-methylpiperazin-1-yl)sulfonyl)phenyl)phthalazin-1-amine, Formic Acid]	18	1.3	> 15	45	–	> 15	EC50 [1, 5]: 1200 nM
CN1CCCN(S(=O)(=O)c2ccc(-c3ccc4c(Nc5ccc(OCc6cccc(F)c6)c(Cl)c5)nncc4c3)cc2)CC1 [NEU-1042, N-(3-Chloro-4-((3-fluorobenzyl)oxy)phenyl)-6-(4-((4-methyl-1,4-diazepan-1-yl)sulfonyl)phenyl)phthalazin-1-amine, Formic Acid]	1.3	0.41	1.1	29	–	3.4	EC50 [1, 5]: 510 nM
CN1CCN(S(=O)(=O)c2ccc(-c3ccc4cnnc(Nc5ccc(OCc6cccc(F)c6)c(Cl)c5)c4c3)cc2)CC1 [NEU-1043, N-(3-Chloro-4-((3-fluorobenzyl)oxy)phenyl)-7-(4-((4-methylpiperazin-1-yl)sulfonyl)phenyl)phthalazin-1-amine, Formic Acid]	> 50	> 3.2	> 4	130	–	> 5	EC50 [1, 5]: 2000 nM
CN1CCCN(S(=O)(=O)c2ccc(-c3ccc4cnnc(Nc5ccc(OCc6cccc(F)c6)c(Cl)c5)c4c3)cc2)CC1 [NEU-1044, N-(3-Chloro-4-((3-fluorobenzyl)oxy)phenyl)-7-(4-((4-methyl-1,4-diazepan-1-yl)sulfonyl)phenyl)phthalazin-1-amine, Formic Acid]	17	> 15	5.6	94	–	14	EC50 [1, 5]: 620 nM
CC1(C)OB(O)c2cc(NC(=O)c3ccc(F)cc3C(F)(F)F)ccc21 [SCYX-7158]	–	–	–	–	–	–	EC50 [3]: 794 nM
CC(=O)CC(c1ccccc1)c1c(O)c2ccccc2oc1=O (stereo not drawn) [Warfarin]	–	–	–	–	–	–	recovery at 4 h, 5 μM (in vitro; pH 7.4): 95%; % compound remaining at 4 h (in vitro; plasma, 4 h, 5 μM): 100%; fraction unbound at 4 h, 5 μM (in vitro; plasma, pH 7.4, % Bound Mean (SD)): 0.156; fraction unbound at 4 h, 5 μM (in vitro; plasma, pH 7.4, % Bound R1): 0.051; fraction unbound at 4 h, 5 μM (in vitro; plasma, pH 7.4, % Bound R2): 0.058; fraction unbound at 4 h, 5 μM (in vitro; plasma, pH 7.4, % Bound R3): 0.059
Nc1nc(N)nc(Nc2ccc([As]3SCC(CO)S3)cc2)n1 (stereo not drawn) [melarsoprol]	–	–	–	–	–	–	EC50 [3]: 6.3 nM
N=C(N)c1ccc(OCCCCCOc2ccc(C(=N)N)cc2)cc1 [pentamidine]	–	–	–	–	–	–	EC50 [3]: 3.5 nM
